The results in this text go back to patent US8431365B2, “β1,3-N-acetyl-D-galactosamine transferase protein, nucleic acid encoding the same and method of examining canceration using the same” (National Institute of Advanced Industrial Science and …, priority 2003, dated 2013).

Format in all cases: biochemical
The target in test [1] is T1, human G34 protein (Homo sapiens, UniProt Q8NCR0).
T1 construct: made in house; host or cells: Sf21 insect cells (baculovirus, pFBIF-G34A)
T1 sequence (Q8NCR0 36-500): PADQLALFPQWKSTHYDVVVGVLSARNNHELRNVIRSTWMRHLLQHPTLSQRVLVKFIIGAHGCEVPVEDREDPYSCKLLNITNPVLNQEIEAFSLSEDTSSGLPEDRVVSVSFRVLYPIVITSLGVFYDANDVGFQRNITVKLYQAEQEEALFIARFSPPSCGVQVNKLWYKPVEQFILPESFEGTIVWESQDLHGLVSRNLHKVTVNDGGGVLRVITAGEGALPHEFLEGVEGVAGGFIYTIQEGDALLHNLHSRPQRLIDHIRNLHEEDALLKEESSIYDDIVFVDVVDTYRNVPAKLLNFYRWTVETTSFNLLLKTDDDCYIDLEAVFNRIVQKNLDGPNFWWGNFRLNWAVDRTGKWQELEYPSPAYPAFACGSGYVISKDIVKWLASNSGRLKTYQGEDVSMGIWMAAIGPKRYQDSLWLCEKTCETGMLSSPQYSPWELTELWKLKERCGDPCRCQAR
The experiment in a line: RI assay (divalent ion requirement).

In test [2] the target is T1, human G34 protein. Briefly: Acceptor substrate specificity to oligosaccharides. The settings on record: for % (radioactivity relative to Bz-β-GlcNAc set to 100%): 50 nmol substrate, HEPES pH 7.4, MnCl2 10 mM, 37° C. 2 hours. From the text:
The following reaction system was used for examining the acceptor substrate specificity to oligosaccharides. The acceptor substrates used were pNp-α-Gal, oNp-β-Gal, Bz-α-GlcNAc, Bz-β-GlcNAc, Bz-α-GalNAc, pNp-β-GalNAc, pNp-α-Glc, pNp-β-Glc, pNp-β-GlcA, pNp-α-Fuc, pNp-α-Xyl, pNp-β-Xyl, pNp-α-Man, lactoside-Bz, Lac-ceramide, Gal-ceramide, paragloboside, globoside, Gal-β1-4 GalNAc-α-pNp, Gal-β1-3 GlcNAc-β-pNp, GlcNAc-[…] GlcNAc β-Bz, pNp-core1 (Gal-β1-3 GalNAc-α-pNp), pNp-core2 (Gal-β1-3 (GlcNAc-β1-6) GalNAc-α-pNp), pNp-core3 (GlcNAc-β1-3 GalNAc-α-pNp) and pNp-core6 (GlcNAc-β1-6 GalNAc-α-pNp). “Lac” represents a D-lactose residue.
Each reaction solution (final concentrations in parentheses) was prepared by adding each substrate (50 nmol), HEPES buffer (pH 7.4, 14 mM), Triton CF-54 (trade name) (0.3%), UDP-GalNAc (2 mM), MnCl2 (10 mM), UDP-[^3H]GlcNAc and 5 μl G34 enzyme solution, followed by dilution with H2O to a total volume of […].
(§1) The above reaction mixtures were each reacted at 37° C. for 2 hours. After completion of the reaction, 200 μl H2O was added and each mixture was lightly centrifuged to obtain the supernatant. The supernatant was passed through a Sep-Pak plus C18 Cartridge (Waters), which had been washed once with 1 ml methanol and twice with 1 ml H2O and then equilibrated, to allow the substrate and product in the supernatant to adsorb to the cartridge. After washing the cartridge twice with 1 ml H2O, the adsorbed substrate and product were eluted with 1 ml methanol. The eluate was mixed with 5 ml liquid scintillator ACSII (Amersham Biosciences) and measured for the amount of radiation with a scintillation counter (Beckman Coulter).
The results thus measured were compared assuming that the radioactivity obtained using Bz-β-GlcNAc as a substrate was set to 100% (see Table 5).

For test [3], the target named is T2, mouse G34 (Mus musculus, UniProt Q8BG28).
T2 construct: made in house; host or cells: 293T cells transfected with pFLAG-CMV3-mG34A; purified from the supernatant
T2 sequence (Q8BG28 35-504): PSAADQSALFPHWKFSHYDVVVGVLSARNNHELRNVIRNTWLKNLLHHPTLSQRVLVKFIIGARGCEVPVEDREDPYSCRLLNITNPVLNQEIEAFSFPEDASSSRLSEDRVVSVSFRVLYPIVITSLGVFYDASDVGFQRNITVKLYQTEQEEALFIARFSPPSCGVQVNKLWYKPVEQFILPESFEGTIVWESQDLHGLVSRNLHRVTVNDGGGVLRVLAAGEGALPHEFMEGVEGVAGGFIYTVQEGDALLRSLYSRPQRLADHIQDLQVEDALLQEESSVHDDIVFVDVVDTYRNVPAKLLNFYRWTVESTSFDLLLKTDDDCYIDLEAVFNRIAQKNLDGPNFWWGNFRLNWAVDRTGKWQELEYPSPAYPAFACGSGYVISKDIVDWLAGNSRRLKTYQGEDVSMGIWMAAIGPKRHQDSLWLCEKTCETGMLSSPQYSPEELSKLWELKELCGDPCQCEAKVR
Briefly: Substrate specificity of β1,3-N-acetylgalactosamine transferase activity of mouse G34. The settings on record: for % (radioactivity relative to Bz-β-GlcNAc set to 100%): 10 nmol substrate, HEPES pH 7.4, MnCl2 10 mM, 37° C. 16 hours.
Source text: The following reaction system was used for examining mouse G34 for its substrate specificity in its β1,3-N-acetylgalactosamine transferase activity. In the reaction solutions shown below, each of the following was used at […] as an “acceptor substrate”: pNp-α-Gal, oNp-β-Gal, Bz-α-GlcNAc, Bz-β-GlcNAc, Bz-α-GalNAc, pNp-β-GalNAc, pNp-α-Glc, pNp-β-Glc, pNp-β-GlcA, pNp-α-Fuc, pNp-α-Xyl, pNp-β-Xyl, pNp-α-Man, lactoside-Bz, Lac-ceramide, Gal-ceramide, Gb3, globoside, Gal-β1-4GalNAc-α-pNp, Galβ1-3GlcNAc-β-Bz, GlcNAc-β1-4-GlcNAc-β-Bz, core1-pNp, core2-pNp, core3-pNp and core6-pNp (all purchased from SIGMA).
Each reaction solution was prepared as follows (final concentrations in parentheses): each substrate (10 nmol), HEPES (N-[2-hydroxyethyl]piperazine-N′-[2-ethanesulfonic acid]) (pH 7.4, 14 mM), MnCl2 (10 mM), Triton CF-54 (trade name) (0.3%), UDP-GalNAc (2 mM) and […] (40 nCi) were mixed and supplemented with 5 μl mouse G34 enzyme solution, followed by dilution with H2O to a total volume of 20 μl.
as §1, with “for 16” for “for 2”
The results thus measured were compared assuming that the radioactivity obtained using Bz-β-GlcNAc as a substrate was set to 100% (Table 11).

The mark [4] stands for this setting: concentration 2.5 mM, acceptor Bz-β-GlcNAc, HEPES pH 7.4.
[5] abbreviates: concentration 5 mM, acceptor Bz-β-GlcNAc, HEPES pH 7.4.
Setting [6] is: concentration 10 mM, acceptor Bz-β-GlcNAc, HEPES pH 7.4.
Where [7] appears, read: concentration 20 mM, acceptor Bz-β-GlcNAc, HEPES pH 7.4.

For the compound `O=C(O)CN(CCN(CC(=O)O)CC(=O)O)CC(=O)O` [EDTA], in test [1] (pH 7.4), the DPM was determined as 149.32 DPM.

Take `CC(=O)N[C@H]1[C@H](OC[C@H]2O[C@H](Oc3ccc([N+](=O)[O-])cc3)[C@H](NC(C)=O)[C@@H](O[C@@H]3O[C@H](CO)[C@H](O)[C@H](O)[C@H]3O)[C@H]2O)O[C@H](CO)[C@@H](O)[C@@H]1O` [core2-pNp, Gal-β1-3-(GlcNAc-β1-6)GalNAc-α-pNp]: in test [2], the “increase in radioactivity” value was “largest increase in radioactivity” and the “% (radioactivity relative to Bz-β-GlcNAc set to 100%)” value came out at 185%. Also, the “% (radioactivity relative to Bz-β-GlcNAc set to 100%)” value in test [3] is 25%.

Turning to `CC(=O)NC1C(OC2C(O)C(CO)OC(Oc3ccc([N+](=O)[O-])cc3)C2NC(C)=O)OC(CO)C(O)C1O` (stereo not drawn) [core3-pNp, GlcNAc-β1-3-GalNAc-α-pNp], the “% (radioactivity relative to Bz-β-GlcNAc set to 100%)” value in test [2] is reported as 8%; in test [3] it was 14%.

Regarding `CC(=O)N[C@H]1[C@H](OCc2ccccc2)O[C@H](CO)[C@@H](O[C@@H]2O[C@H](CO)[C@@H](O)[C@H](O)[C@H]2NC(C)=O)[C@@H]1O` [GlcNAcβ1-4GlcNAc-β-Bz], the “% (radioactivity relative to Bz-β-GlcNAc set to 100%)” value in test [2] stood at 29%; in test [3] it was 10%.

`[Cl-].[Cl-].[Mg+2]` [Mg, MgCl2]: the DPM is recorded as 4800.03 DPM in test [1] (setting [4]); 8692.15 DPM in test [1] (setting [5]); 8980.56 DPM in test [1] (setting [6]); 6726.32 DPM in test [1] (setting [7]); 5592.88 DPM in test [1] (concentration 40 mM, acceptor Bz-β-GlcNAc, HEPES pH 7.4).

Consider `CC(=O)N[C@H]1[C@H](OCc2ccccc2)O[C@H](CO)[C@@H](O)[C@@H]1O` [Bz-β-GlcNAc], for which the “% (radioactivity relative to Bz-β-GlcNAc set to 100%)” value in test [2] and in test [3] was 100% in each case. Also, in test [3], the “increase in radioactivity” value is recorded as “largest increase in radioactivity”.

Consider `[Cu+2]` [Cu], for which, in test [1], the “Mn-induced enhancement of the activity on addition of Cu” value is recorded as “completely eliminated”.

For `O=[N+]([O-])c1ccc(O[C@@H]2O[C@H](CO)[C@@H](O)[C@H](O)[C@H]2O)cc1` [pNp-β-Glc], the “% (radioactivity relative to Bz-β-GlcNAc set to 100%)” value in test [3] is 12%.

For `[Cl-].[Cl-].[Co+2]` [Co, CoCl2], the DPM was 10979.99 DPM in test [1] (concentration 2.5 mM); 9503.91 DPM in test [1] (concentration 5 mM); 10979.99 DPM in test [1] (concentration 10 mM); 8070.47 DPM in test [1] (concentration 20 mM); 7854.92 DPM in test [1] (concentration 40 mM).

`CC(=O)N[C@H]1[C@@H](Oc2ccc([N+](=O)[O-])cc2)O[C@H](CO[C@@H]2O[C@H](CO)[C@@H](O)[C@H](O)[C@H]2NC(C)=O)[C@H](O)[C@@H]1O` [core6-pNp, GlcNAc-β1-6-GalNAc-α-pNp]: the “% (radioactivity relative to Bz-β-GlcNAc set to 100%)” value stood at 19% in test [2] and 18% in test [3].

Turning to `[Cl][Mn][Cl]` [Mn, MnCl2], the DPM in test [1] (setting [4]) is reported as 7260.09 DPM; in test [1] (setting [5]) it was 8270.23 DPM; in test [1] (setting [6]), 7748.77 DPM; in test [1] (setting [7]) it was 7515.86 DPM.
